Results published in patent US5440014A, “Fibronectin binding peptide” (priority 1990, dated 1995).

Columns and labels:
Treponema palladium = conditions: Thomas et al., 1985b; cited from earlier work
Trypanosoma cruzi = conditions: Ouaissi et al., 1986; cited from earlier work
spirochetes = conditions: cited from earlier work
Human fibronectin = Human fibronectin (human, UniProt P02751, ^125 I-labeled (chloramine T iodination)); assay: synthetic peptide; inhibition of 125I-HFN binding to S. aureus 8325-4 cells

Question: Which “prevention of fibronectin binding to Treponema palladium” value (Treponema palladium) does the source give for RGDS here?
Answer: Binding was also prevented

Question: And the “prevention of fibronectin binding to Trypanosoma cruzi” value (Trypanosoma cruzi)?
Answer: Binding was also prevented

Question: What about the “attachment of spirochetes to cultured human cells” value (spirochetes) of the same molecule?
Answer: blocked the attachment

B1: Peptide S20-33 (peptide)
peptide: QFGGHNSVDFEEDT
Question: Does B1 bind (Human fibronectin)?
Answer: no binding
